Laboratory results as given in ChEMBL document CHEMBL1155691, “Novel extracellular diterpenoids with biological activity from the cyanobacterium Nostoc commune” (2000).
In brackets after ≈: the same amount, converted by molar mass.

Key:
Assay type in all cases: functional
[1] = tested on: Staphylococcus epidermidis; assay: Antimicrobial activity against Staphylococcus epidermidis ATCC 12228
[2] = tested on: Bacillus cereus; assay: Antimicrobial activity against Bacillus cereus ATCC 10702
[3] = tested on: Escherichia coli; assay: Antimicrobial activity against Escherichia coli ATCC 25922
[4] = tested on: Caco-2; assay: Cytotoxicity against human Caco-2 cells
[5] = tested on: KB; assay: Cytotoxicity against human KB cells
[6] = tested on: Biomphalaria glabrata; assay: Antimolluscicidal activity against Biomphalaria glabrata

Compound	MIC [1]	MIC [2]	MIC [3]	MIC [4]	MIC [5]	MIC [6]
O=C(N[C@H](CO)[C@H](O)c1ccc([N+](=O)[O-])cc1)C(Cl)Cl [CHLORAMPHENICOL]	4 µg/mL (≈ 12.4 µM)	8 µg/mL (≈ 24.8 µM)	–	–	–	–
C[C@@H]1CC[C@@]2(C)[C@@H](CC[C@]3(C)[C@@H]2CC[C@@]3(C)CO)[C@]1(C)Cc1cc(C(=O)O)ccc1O [COMNASTIN A]	16 µg/mL (≈ 37.3 µM)	32 µg/mL (≈ 74.7 µM)	128 µg/mL (≈ 299 µM)	–	–	–
C[C@@H]1CC[C@@]2(C)[C@@H](CC[C@]3(C)[C@@H]2CC[C@@]3(C)C=O)[C@]1(C)Cc1cc(C(=O)O)ccc1O [COMNASTIN B]	16 µg/mL (≈ 37.5 µM)	32 µg/mL (≈ 75 µM)	128 µg/mL (≈ 300 µM)	0.18 µg/mL (≈ 0.422 µM)	0.4 µg/mL (≈ 0.938 µM)	20 µg/mL (≈ 46.9 µM)
C[C@@H]1CC[C@@]2(C)[C@@H](CC[C@]3(C)[C@@H]2CC[C@@]3(C)C(=O)O)[C@]1(C)Cc1cc(C(=O)O)ccc1O [COMNASTIN C]	16 µg/mL (≈ 36.2 µM)	32 µg/mL (≈ 72.3 µM)	64 µg/mL (≈ 145 µM)	–	–	–
COC(OC)[C@]1(C)CC[C@@H]2[C@@]3(C)CC[C@@H](C)[C@@](C)(Cc4cc(C(=O)O)ccc4O)[C@@H]3CC[C@]21C [COMNASTIN D]	32 µg/mL (≈ 67.7 µM)	16 µg/mL (≈ 33.9 µM)	128 µg/mL (≈ 271 µM)	–	–	–
CC(=O)[C@@H]1CC[C@@H]2[C@@]3(C)CC[C@@H](C)[C@@](C)(Cc4cc(C(=O)O)ccc4O)[C@@H]3CC[C@]21C [COMNASTIN E]	4 µg/mL (≈ 9.38 µM)	128 µg/mL (≈ 300 µM)	–	–	–	–
COc1cc([C@@H]2c3cc4c(cc3[C@H](O)[C@H]3COC(=O)[C@H]23)OCO4)cc(OC)c1OC [PODOFILOX]	–	–	–	0.02 µg/mL (≈ 0.0483 µM)	0.01 µg/mL (≈ 0.0241 µM)	–
CN(C)[C@@H]1C(O)=C(C(N)=O)C(=O)[C@@]2(O)C(O)=C3C(=O)c4c(O)cccc4[C@@](C)(O)[C@H]3C[C@@H]12 [TETRACYCLINE]	–	–	64 µg/mL (≈ 144 µM)	–	–	–
